Results from ChEMBL document CHEMBL3045895 (Med Chem Res, 2012).
Active and inactive are the calls of the source. No cut-off for these calls is given here.

How the values were obtained:
[1] = biological target: Urease (Canavalia ensiformis) (UniProt P07374); experiment: Inhibition of Canavalia ensiformis (jack bean) urease using urea as substrate at 500 uM after 15 min by indophenol-based spectrophotometric analysis
[2] = species on record: Homo sapiens; experiment: Inhibition of alpha-chymotrypsin (unknown origin) using N-succinyl-phenylalanine-p-nitroanilide as substrate at 500 uM incubated for 25 min prior to substrate by spectrophotometric analysis
[3] = biological target: Acetylcholinesterase (Homo sapiens) (UniProt P22303); experiment: Inhibition of acetylcholinesterase (unknown origin) using acetylthiocholine iodide as substrate at 500 uM incubated for 15 min prior to substrate addition measured for 15 min by spectrophotometric analysis
[4] = biological target: T1, Beta-glucuronidase (Homo sapiens) (UniProt P08236); experiment: Inhibition of beta-glucuronidase (unknown origin) using p-nitrophenyl-beta-D-glucuronide as substrate at 500 uM incubated for 30 min prior to substrate addition by spectrophotometric analysis
T1 sequence (whole entry): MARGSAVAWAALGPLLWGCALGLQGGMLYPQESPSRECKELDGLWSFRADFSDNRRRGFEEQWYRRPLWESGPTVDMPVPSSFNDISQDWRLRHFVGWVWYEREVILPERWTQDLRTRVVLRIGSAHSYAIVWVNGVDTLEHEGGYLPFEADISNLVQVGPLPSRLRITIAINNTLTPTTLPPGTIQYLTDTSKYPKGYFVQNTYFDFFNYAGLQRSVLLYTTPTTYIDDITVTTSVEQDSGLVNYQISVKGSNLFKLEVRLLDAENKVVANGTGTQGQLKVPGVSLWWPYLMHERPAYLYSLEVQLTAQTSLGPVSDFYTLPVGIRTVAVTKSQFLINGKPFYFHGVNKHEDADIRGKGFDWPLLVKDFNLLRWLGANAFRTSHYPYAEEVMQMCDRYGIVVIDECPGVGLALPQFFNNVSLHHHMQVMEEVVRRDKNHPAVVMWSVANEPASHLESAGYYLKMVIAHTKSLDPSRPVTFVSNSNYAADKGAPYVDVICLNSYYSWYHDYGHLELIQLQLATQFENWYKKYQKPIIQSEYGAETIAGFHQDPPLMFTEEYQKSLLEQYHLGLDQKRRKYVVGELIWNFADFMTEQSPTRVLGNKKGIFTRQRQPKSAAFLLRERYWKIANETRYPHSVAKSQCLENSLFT

[5] = biological target: T2, Cholinesterase (Homo sapiens, UniProt P06276); experiment: Inhibition of butyrylcholinesterase (unknown origin) using butyrylthiocholine chloride as substrate incubated for 15 min prior to substrate addition measured for 15 min by spectrophotometric analysis
[6] = biological target: Urease (Canavalia ensiformis, UniProt P07374); experiment: Inhibition of Canavalia ensiformis (jack bean) urease using urea as substrate after 15 min by indophenol-based spectrophotometric analysis
[7] = biological target: T2, Cholinesterase; experiment: Inhibition of butyrylcholinesterase (unknown origin) using butyrylthiocholine chloride as substrate at 500 uM incubated for 15 min prior to substrate addition measured for 15 min by spectrophotometric analysis
[8] = biological target: T3, Beta-glucuronidase (Homo sapiens, UniProt P08236); experiment: Inhibition of beta-glucuronidase (unknown origin) using p-nitrophenyl-beta-D-glucuronide as substrate incubated for 30 min prior to substrate addition by spectrophotometric analysis
T3 sequence (P08236 whole entry): T1 sequence (whole entry)

Sequence of Acetylcholinesterase (Homo sapiens) (P22303 whole entry): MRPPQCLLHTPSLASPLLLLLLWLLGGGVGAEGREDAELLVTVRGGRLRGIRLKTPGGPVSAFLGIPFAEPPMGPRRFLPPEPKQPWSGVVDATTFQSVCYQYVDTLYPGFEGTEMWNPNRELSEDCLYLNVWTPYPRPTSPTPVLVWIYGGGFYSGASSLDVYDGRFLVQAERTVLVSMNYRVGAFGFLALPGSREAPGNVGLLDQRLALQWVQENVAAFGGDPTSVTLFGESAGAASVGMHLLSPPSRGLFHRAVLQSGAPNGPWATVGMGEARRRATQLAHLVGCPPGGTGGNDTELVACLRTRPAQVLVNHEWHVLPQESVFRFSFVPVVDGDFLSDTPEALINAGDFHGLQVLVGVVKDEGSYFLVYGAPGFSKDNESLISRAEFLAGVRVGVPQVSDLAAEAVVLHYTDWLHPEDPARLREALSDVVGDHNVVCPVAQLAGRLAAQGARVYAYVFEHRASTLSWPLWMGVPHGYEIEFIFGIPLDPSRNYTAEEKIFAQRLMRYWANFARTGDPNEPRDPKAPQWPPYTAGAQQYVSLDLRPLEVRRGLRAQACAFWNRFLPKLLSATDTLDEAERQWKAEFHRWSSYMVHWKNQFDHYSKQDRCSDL
T2 sequence (P06276 whole entry): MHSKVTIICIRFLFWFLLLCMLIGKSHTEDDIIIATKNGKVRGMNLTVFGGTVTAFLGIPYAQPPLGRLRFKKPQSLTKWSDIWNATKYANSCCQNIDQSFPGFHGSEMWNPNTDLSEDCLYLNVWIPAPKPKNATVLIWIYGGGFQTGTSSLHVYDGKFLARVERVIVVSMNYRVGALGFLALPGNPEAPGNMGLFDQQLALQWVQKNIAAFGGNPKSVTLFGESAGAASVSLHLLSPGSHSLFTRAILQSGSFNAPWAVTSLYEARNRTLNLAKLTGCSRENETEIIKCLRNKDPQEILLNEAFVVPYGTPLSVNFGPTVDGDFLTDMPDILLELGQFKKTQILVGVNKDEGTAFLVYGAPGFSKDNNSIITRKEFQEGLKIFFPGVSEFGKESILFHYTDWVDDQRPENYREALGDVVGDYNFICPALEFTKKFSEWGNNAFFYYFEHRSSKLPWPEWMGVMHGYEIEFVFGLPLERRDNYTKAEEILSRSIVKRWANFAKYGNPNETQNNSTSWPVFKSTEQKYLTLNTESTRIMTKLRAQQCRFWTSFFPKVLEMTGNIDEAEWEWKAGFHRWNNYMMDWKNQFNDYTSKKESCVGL
Sequence of Urease (P07374 whole entry): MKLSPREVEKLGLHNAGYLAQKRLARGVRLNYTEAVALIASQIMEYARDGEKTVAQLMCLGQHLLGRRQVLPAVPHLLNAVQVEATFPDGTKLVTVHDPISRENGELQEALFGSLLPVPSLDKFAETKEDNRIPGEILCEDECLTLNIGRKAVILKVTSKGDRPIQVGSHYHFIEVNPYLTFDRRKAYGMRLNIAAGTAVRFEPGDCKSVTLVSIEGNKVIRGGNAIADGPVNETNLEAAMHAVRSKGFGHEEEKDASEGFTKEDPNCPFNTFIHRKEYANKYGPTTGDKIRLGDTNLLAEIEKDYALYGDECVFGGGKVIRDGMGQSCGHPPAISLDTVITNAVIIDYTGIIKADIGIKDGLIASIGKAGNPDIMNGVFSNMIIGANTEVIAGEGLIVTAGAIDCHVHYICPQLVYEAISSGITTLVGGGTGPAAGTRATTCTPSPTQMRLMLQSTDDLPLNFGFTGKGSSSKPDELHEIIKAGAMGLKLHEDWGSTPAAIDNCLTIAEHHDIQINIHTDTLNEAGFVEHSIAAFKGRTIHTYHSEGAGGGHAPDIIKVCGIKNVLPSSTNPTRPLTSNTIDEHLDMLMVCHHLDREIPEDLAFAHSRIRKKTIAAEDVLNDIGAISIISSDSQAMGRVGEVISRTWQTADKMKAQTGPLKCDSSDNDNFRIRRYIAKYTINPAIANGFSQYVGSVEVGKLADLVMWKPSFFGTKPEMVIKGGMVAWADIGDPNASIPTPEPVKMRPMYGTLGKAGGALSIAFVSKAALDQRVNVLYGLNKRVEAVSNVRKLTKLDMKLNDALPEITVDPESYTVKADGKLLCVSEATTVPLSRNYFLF
Sequence of Urease (Canavalia ensiformis) (P07374 whole entry, looked up): as the sequence (P07374 whole entry) above

Cc1cc(CN(CCO)Cc2cc(C)n(C)n2)nn1C
inhibition [1]: inactive | inhibition [2]: inactive | inhibition [3]: inactive | inhibition [4]: inactive | IC50 [5]: 68 µM

Cc1cc(C)n(CO)n1
inhibition [2]: inactive | inhibition [3]: inactive | inhibition [4]: inactive | IC50 [6]: 94.3 µM | inhibition [7]: inactive

Cc1cc(C)n(CN(Cn2nc(C)cc2C)C2CCCCC2)n1
inhibition [2]: inactive | inhibition [3]: inactive | IC50 [6]: 43.5 µM | inhibition [7]: inactive | IC50 [8]: 457 µM

Cc1cc(C)n(CN(CCO)Cn2nc(C)cc2C)n1
inhibition [2]: inactive | inhibition [3]: inactive | inhibition [4]: inactive | IC50 [6]: 44.7 µM | inhibition [7]: inactive
